Measurements as given in paper PMC11606603, “The membrane domains of mammalian adenylyl cyclases are lipid receptors” (eLife, 2024).
Values joined by “and” are separate entries in the source; they are usually repeats but may differ in a detail not shown here. Equal values may be shown once.

Legend:
Type in all cases: biochemical
mAC4 = biological target: T1, mAC4 (Homo sapiens, UniProt Q8NFM4); assay: AC assay, Gsα-stimulated mAC4 in membranes from transfected HEK293 cells
T1 construct: Human mAC genes were from GenScript and fitted with a C-terminal FLAG-tag; FLAG (C); made in house; host or cells: HEK293, permanently transfected; membrane preparation
T1 sequence (Q8NFM4 1-1077): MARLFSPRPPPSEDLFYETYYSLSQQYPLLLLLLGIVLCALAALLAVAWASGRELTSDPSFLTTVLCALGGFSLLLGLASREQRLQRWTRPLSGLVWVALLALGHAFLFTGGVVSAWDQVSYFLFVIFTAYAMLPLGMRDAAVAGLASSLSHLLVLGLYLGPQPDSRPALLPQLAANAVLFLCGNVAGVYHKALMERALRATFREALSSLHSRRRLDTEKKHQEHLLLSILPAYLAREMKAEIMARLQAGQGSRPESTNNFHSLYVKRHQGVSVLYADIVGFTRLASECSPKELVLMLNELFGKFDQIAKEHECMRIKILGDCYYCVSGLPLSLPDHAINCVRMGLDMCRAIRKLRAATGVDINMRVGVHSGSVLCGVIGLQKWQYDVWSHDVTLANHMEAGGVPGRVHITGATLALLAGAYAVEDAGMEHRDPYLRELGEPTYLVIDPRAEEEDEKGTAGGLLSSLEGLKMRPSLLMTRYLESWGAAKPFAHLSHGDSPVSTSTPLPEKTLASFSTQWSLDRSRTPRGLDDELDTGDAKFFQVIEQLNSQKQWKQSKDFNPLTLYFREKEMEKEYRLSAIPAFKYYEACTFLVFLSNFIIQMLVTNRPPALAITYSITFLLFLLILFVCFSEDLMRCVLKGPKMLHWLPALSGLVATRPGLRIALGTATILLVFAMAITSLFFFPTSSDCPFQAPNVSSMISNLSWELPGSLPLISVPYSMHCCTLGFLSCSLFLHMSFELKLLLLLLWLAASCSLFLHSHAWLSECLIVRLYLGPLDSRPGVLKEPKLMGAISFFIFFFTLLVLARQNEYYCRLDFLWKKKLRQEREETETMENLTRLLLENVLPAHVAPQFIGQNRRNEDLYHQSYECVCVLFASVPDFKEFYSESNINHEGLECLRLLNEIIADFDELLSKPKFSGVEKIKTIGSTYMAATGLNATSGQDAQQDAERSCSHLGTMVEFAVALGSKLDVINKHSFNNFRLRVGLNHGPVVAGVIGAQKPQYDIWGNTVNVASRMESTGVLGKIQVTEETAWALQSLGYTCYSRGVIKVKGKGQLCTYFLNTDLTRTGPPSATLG
Procedure: (§1) hAC sequences were from NCBI were: ADCY1: NM_021116.3; ADCY2: NM_020546.2; ADCY3: NM_004036.4; ADCY4: NM_001198568.2; ADCY5: NM_183357.2; ADCY6: NM_015270.4; ADCY7: NM_001114.4; ADCY8: NM_001115.2; ADCY9: NM_001116.3. Human mAC genes were from GenScript and fitted with a C-terminal FLAG-tag. […] The gene was synthesized by GenScript. HEK293 cells were maintained in Dulbeccos Modified Eagle Medium (DMEM) with 10% fetal bovine serum at 37°C and 5% CO2. Transfection with AC plasmids was with PolyJet (SignaGen, Frederick, MD, USA). Permanent cell lines were generated by selection for 7 days with 600 µg/ml G418 and maintained with 300 µg/ml For membrane preparation, cells were tyrpsinized, collected by centrifugation (3000 × g, 5 min) and lysed and homogenized in 20 mM HEPES, pH 7.5, 1 mM Ethylenediaminetetraacetic acid (EDTA), 2 mM MgCl2, 1 mM Dithiothreitol (DTT), one tablet of cOmplete, EDTA-free (per 50 ml) and 250 mM sucrose by 20 strokes in a potter homogenizer on ice. Debris was removed (5 min at 1000 × g, 0°C), membranes were collected at 100,000 × g, 60 min at 0°C, suspended and stored at −80°C in 20 mM MOPS, pH 7.5, 0.5 mM EDTA, 2 mM MgCl2. […] Three cerebral cortices were dissected and homogenized in 4.5 ml cold 48 mM Tris–HCl, pH 7.4, 12 mM MgC1_2, and 0.1 mM Ethylene glycol-bis(β-aminoethyl ether)-N,N,N′,N′-tetraacetic acid (EGTA) with a Polytron hand disperser (Kinematica AG, Switzerland). […] The pellet was washed once with 5 ml 1 mM KHCO3. The final suspension in 2 ml 1 mM KHCO3 was stored in aliquots at −80°C.
(§2) In a volume of 10 μl, AC activities were measured using 1 mM ATP, 2 mM MgCl2, 3 mM creatine phosphate, 60 μg/ml creatine kinase, and 50 mM MOPS pH 7.5. The cAMP assay kit from Cisbio (Codolet, France) was used for detection according to the supplier’s instructions. For each assay, a cAMP standard curve was established. EC50 and IC50 values were calculated by GraphPad Prism version 8.4.3 for Windows, GraphPad Software, San Diego, CA, USA, https://www.graphpad.com .

mAC9 = biological target: T2, mAC9 (Homo sapiens, UniProt O60503); assay: AC assay, Gsα-stimulated mAC9 in membranes from transfected HEK293 cells; settings: 300 nM Gsα, single experiments
T2 construct: Human mAC genes were from GenScript and fitted with a C-terminal FLAG-tag; FLAG (C); made in house; host or cells: HEK293, permanently transfected; membrane preparation
Procedure: as §1, §2

mAC1 = biological target: T3, mAC1 (Homo sapiens, UniProt Q08828); assay: AC assay, Gsα-stimulated mAC1 in membranes from transfected HEK293 cells
T3 construct: Human mAC genes were from GenScript and fitted with a C-terminal FLAG-tag; FLAG (C); made in house; host or cells: HEK293, permanently transfected; membrane preparation
Procedure: as §1, §2

mAC3 = biological target: T4, mAC3 (Homo sapiens, UniProt O60266); assay: AC assay, Gsα-stimulated mAC3 in membranes from transfected HEK293 cells; settings: for mAC3 activity [%] (100% = 300nM Gsα stimulation): fatty acid 20 µM, individual experiments
T4 construct: Human mAC genes were from GenScript and fitted with a C-terminal FLAG-tag; FLAG (C); made in house; host or cells: HEK293, permanently transfected; membrane preparation
Procedure: as §1, §2

mAC7 = biological target: T5, mAC7 (Homo sapiens, UniProt P51828); assay: AC assay, Gsα-stimulated mAC7 in membranes from transfected HEK293 cells; settings: Figure 5-figure supplement 2 left, 20 µM
T5 construct: Human mAC genes were from GenScript and fitted with a C-terminal FLAG-tag; FLAG (C); made in house; host or cells: HEK293, permanently transfected; membrane preparation
Procedure: as §1, §2

mAC8 = biological target: T6, mAC8 (Homo sapiens, UniProt P40145); assay: AC assay, Gsα-stimulated mAC8 in membranes from transfected HEK293 cells; settings: 20µM fatty acid concentration
T6 construct: Human mAC genes were from GenScript and fitted with a C-terminal FLAG-tag; FLAG (C); made in house; host or cells: HEK293, permanently transfected; membrane preparation
Procedure: as §1, §2

mAC6 = biological target: T7, mAC6 (Homo sapiens, UniProt O43306); assay: AC assay, Gsα-stimulated mAC6 in membranes from transfected HEK293 cells; settings: 20µM fatty acid concentration
T7 construct: Human mAC genes were from GenScript and fitted with a C-terminal FLAG-tag; FLAG (C); made in house; host or cells: HEK293, permanently transfected; membrane preparation
Procedure: as §1, §2

mAC5 = biological target: T8, mAC5 (Homo sapiens, UniProt O95622); assay: AC assay, Gsα-stimulated mAC5 in membranes from transfected HEK293 cells; settings: 20µM fatty acid concentration
T8 construct: Human mAC genes were from GenScript and fitted with a C-terminal FLAG-tag; FLAG (C); made in house; host or cells: HEK293, permanently transfected; membrane preparation
Procedure: as §1, §2

mAC2 = biological target: T9, mAC2 (Homo sapiens, UniProt Q08462); assay: AC assay, Gsα-stimulated mAC2 in membranes from transfected HEK293 cells; settings: Figure 5-figure supplement 1 left, 20 µM
T9 construct: Human mAC genes were from GenScript and fitted with a C-terminal FLAG-tag; FLAG (C); made in house; host or cells: HEK293, permanently transfected; membrane preparation
Procedure: as §1, §2

T6 sequence (P40145 whole entry): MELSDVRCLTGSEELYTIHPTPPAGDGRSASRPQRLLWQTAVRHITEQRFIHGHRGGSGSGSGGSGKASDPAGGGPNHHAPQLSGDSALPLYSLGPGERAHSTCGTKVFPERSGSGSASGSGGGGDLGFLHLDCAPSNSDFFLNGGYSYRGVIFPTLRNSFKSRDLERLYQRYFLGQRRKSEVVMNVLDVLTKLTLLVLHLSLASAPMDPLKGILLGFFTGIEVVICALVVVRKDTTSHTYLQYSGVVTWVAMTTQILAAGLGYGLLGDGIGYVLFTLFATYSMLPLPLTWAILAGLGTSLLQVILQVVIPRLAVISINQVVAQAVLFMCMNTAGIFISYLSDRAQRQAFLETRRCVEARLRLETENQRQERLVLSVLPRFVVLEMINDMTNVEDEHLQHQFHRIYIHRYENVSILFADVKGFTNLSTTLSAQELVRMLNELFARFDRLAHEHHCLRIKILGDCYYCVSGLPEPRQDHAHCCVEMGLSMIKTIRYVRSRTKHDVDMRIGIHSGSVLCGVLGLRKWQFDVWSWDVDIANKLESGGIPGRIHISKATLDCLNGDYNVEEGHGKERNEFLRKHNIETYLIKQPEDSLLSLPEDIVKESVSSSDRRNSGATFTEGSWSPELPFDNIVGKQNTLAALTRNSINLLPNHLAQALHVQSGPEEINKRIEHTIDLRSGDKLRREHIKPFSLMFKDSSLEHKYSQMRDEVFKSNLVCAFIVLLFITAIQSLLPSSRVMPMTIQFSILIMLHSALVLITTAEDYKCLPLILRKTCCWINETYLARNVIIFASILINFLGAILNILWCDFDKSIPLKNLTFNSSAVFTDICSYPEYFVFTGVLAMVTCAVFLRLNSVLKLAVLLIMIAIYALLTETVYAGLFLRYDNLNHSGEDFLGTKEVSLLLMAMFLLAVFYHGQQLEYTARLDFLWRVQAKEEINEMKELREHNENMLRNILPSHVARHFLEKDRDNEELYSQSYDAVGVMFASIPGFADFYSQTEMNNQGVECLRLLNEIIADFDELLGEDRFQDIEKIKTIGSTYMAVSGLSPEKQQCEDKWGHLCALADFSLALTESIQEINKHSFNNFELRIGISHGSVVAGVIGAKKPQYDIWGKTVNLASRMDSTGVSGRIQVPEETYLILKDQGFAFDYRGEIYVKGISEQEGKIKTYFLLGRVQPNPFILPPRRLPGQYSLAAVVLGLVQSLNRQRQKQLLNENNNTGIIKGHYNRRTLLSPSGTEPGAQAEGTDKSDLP
T3 sequence (Q08828 whole entry): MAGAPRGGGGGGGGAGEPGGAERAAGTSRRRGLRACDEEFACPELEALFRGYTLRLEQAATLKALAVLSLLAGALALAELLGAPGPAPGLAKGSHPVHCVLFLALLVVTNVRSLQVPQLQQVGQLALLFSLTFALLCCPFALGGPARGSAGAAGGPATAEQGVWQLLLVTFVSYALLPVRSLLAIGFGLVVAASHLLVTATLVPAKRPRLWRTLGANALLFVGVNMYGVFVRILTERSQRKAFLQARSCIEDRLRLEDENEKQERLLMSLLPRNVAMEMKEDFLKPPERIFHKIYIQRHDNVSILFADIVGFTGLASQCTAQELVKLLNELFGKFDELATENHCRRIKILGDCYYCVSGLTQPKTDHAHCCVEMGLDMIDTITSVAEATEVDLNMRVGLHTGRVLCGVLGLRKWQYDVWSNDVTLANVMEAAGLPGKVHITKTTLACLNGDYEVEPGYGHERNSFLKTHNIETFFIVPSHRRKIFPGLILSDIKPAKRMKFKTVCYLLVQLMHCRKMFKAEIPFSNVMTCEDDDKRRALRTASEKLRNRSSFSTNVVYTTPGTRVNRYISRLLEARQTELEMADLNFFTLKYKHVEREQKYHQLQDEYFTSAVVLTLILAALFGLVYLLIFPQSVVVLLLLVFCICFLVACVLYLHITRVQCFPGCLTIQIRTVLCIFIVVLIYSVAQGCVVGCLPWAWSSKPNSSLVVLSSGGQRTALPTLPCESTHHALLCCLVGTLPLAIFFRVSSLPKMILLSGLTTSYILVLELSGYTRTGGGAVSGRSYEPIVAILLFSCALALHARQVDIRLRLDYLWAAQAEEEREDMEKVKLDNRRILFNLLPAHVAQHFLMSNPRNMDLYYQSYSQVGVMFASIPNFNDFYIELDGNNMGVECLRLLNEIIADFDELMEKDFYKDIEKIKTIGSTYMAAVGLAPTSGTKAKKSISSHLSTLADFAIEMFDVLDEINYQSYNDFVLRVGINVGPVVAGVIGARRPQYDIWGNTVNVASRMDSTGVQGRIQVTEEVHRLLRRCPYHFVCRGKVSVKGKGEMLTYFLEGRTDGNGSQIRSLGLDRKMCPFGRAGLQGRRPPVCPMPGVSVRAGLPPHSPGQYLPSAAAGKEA
T9 sequence (Q08462 whole entry): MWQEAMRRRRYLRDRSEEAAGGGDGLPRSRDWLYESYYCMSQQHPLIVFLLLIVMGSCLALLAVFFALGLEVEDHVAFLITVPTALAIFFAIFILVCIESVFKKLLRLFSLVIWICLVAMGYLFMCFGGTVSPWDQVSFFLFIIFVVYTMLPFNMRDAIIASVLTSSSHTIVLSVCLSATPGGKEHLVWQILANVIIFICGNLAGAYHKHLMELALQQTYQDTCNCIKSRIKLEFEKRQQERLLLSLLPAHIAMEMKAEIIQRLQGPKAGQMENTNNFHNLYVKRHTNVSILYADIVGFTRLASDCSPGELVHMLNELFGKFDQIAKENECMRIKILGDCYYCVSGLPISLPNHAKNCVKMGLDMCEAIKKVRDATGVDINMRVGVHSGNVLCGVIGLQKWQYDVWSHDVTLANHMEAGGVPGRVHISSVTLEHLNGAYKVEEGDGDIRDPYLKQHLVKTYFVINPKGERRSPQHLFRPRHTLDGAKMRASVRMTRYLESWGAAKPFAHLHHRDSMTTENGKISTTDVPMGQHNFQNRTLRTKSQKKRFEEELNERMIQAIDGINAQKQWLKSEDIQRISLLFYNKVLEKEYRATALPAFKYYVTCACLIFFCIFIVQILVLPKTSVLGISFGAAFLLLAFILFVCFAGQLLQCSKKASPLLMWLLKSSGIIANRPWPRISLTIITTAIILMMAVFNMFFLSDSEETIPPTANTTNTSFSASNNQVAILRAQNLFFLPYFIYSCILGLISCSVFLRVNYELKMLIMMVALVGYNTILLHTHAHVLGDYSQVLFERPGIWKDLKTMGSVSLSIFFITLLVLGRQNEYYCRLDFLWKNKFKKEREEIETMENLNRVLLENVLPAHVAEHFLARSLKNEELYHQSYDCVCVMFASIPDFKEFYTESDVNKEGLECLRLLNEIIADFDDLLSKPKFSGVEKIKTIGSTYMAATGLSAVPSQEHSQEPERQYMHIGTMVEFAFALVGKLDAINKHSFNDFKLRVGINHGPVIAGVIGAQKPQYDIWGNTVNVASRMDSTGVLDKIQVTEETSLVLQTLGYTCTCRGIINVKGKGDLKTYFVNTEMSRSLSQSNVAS
T9 sequence (P63092 2-394 Q227L partner): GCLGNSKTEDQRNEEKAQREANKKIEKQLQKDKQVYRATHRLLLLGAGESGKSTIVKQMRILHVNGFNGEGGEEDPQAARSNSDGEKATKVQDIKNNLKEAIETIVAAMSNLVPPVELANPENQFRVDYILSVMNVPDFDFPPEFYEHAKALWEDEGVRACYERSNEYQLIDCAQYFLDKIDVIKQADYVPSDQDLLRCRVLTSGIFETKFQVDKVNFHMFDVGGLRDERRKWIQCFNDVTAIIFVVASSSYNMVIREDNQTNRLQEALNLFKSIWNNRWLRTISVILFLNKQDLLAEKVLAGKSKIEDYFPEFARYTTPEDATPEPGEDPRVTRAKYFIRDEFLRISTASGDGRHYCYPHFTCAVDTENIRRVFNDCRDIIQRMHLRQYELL
T8 sequence (O95622 whole entry): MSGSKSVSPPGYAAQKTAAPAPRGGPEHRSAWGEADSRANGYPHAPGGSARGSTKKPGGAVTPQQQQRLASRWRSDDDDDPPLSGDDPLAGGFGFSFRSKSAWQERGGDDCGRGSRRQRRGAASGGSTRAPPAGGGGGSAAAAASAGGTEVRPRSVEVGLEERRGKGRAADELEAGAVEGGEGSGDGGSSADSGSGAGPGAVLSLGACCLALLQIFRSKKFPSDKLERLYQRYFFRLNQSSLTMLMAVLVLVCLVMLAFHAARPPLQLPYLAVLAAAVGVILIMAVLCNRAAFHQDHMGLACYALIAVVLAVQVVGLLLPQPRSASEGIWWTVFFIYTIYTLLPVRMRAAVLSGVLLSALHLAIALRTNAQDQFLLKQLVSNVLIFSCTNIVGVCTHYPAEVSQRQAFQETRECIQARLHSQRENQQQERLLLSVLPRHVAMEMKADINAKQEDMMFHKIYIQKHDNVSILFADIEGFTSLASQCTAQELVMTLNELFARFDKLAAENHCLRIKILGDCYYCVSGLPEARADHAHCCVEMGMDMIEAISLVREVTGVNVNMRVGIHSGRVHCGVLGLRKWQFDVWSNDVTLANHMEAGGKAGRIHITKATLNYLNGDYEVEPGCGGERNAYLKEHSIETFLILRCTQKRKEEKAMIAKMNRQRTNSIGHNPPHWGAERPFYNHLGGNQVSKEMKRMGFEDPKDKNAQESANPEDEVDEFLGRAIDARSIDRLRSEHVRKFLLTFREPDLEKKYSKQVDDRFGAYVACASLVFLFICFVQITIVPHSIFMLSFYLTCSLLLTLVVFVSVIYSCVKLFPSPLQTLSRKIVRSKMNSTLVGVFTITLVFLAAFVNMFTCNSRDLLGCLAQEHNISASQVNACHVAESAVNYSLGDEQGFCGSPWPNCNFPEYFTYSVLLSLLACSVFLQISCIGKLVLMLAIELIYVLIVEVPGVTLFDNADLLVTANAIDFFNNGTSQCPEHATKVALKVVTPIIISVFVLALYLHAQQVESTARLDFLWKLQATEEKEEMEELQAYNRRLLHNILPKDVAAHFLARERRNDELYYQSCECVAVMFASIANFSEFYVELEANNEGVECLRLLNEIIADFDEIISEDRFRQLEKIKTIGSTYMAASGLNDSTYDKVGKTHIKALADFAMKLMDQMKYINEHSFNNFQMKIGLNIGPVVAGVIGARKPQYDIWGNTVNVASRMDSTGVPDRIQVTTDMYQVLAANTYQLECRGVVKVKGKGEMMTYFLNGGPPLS

Row | Structure (SMILES) | mAC4 activity [%] (100% = 300nM Gsα stimulation); 20µM fatty acid concentration (mAC4; 300 nM Gsα, single experiments) | mAC9 activity [%] (100% = 300nM Gsα stimulation); 20µM fatty acid concentration (mAC9) | mAC1 activity [%] (100% = 300nM Gsα stimulation); 20µM fatty acid concentration (mAC1; 300 nM Gsα, single experiments) | mAC3 activity [%] (100% = 300nM Gsα stimulation) (mAC3) | mAC7 activity [%] (100% = 300nM Gsα stimulation); 20µM fatty acid concentration (mAC7) | mAC8 activity [%] (100% = 300nM Gsα stimulation) (mAC8) | mAC6 activity [%] (100% = 300nM Gsα stimulation) (mAC6) | mAC5 activity [%] (100% = 300nM Gsα stimulation) (mAC5) | mAC2 activity [%] (100% = 300nM Gsα stimulation); 20µM fatty acid concentration (mAC2) | other results
1 | CCCCCCCCCC(O)CCCCCCCC(=O)O (stereo not drawn) [9-HSA, 9-Hydroxystearic acid] | 134% and 93% | 93% and 157% | 95% and 93% | 104% and 110% | 161% and 83% | 67% and 108% | 122% and 118% | 100% and 102% | 89% and 75% | 
2 | CCCC/C=C\CCCCCCCC(=O)O [Myristoleic acid, Myristoleic ((9Z)-tetradecenoic) acid] | 79% and 94% and 104% | 88% and 116% and 130% | 90% and 103% and 77% | 82% and 156% and 95% | 92% and 95% and 67% | 62% and 117% and 101% | 92% and 96% | 79% and 90% and 96% | 106% and 81% and 89% | 
3 | CCCCCC/C=C\CCCCCCCC(=O)O [Palmitoleic acid, Palmitoleic ((9Z)-hexadecenoic) acid] | 58% and 74% and 53% and 64% and 83% |  | 56% and 77% and 83% and 82% and 92% | 151% and 133% and 248% and 259% and 116% and 136% and 292% | 91% and 107% and 128% | 116% and 103% and 76% | 71% and 89% and 68% | 99% and 92% and 101% | 82% and 120% and 125% | Effect of lipid on 300 nM Gsα-stimulated mAC4 (mAC4; 20 µM, in words): somewhat less; IC50 (mAC4; attenuation of 300 nM Gsα-stimulated activity, read-out: IC50 for mAC4): 20 µM; activity at 0.1 µM (mAC4; read-out: mAC4 activity (%);(100% = Gsα stimulation) stimulated by 300nM Gsα, 0.1 µM, 300 nM Gsα, single experiments (reference point, all 100)): 100%; activity at 25 µM (mAC4; read-out: mAC4 activity (%);(100% = Gsα stimulation) stimulated by 300nM Gsα, 25 µM, 300 nM Gsα, single experiments): 49%; activity at 50 µM (mAC4; read-out: mAC4 activity (%);(100% = Gsα stimulation) stimulated by 300nM Gsα, 50 µM, 300 nM Gsα, single experiments): 19%; activity at 60 µM (mAC4; read-out: mAC4 activity (%);(100% = Gsα stimulation) stimulated by 300nM Gsα, 60 µM, 300 nM Gsα, single experiments): 75%; activity at 100 µM (mAC4; read-out: mAC4 activity (%);(100% = Gsα stimulation) stimulated by 300nM Gsα, 100 µM, 300 nM Gsα, single experiments): 44%; mAC9 activity (%);(100% = Gsα stimulation) stimulated by 300nM Gsα (mAC9; 1 µM fatty acid): 136% and 130% and 125%; IC50 (mAC1): 49 µM; activity at 1 µM (mAC1; 1 µM, 300 nM Gsα, single experiments, read-out: mAC1 activity (%);(100% = Gsα stimulation) stimulated by 300nM Gsα): 84%; activity at 6 µM (mAC1; 6 µM, 300 nM Gsα, single experiments, read-out: mAC1 activity (%);(100% = Gsα stimulation) stimulated by 300nM Gsα): 97%; Effect of lipid on 300 nM Gsα-stimulated mAC1 (mAC1; 20 µM, in words): somewhat less; activity at 25 µM (mAC1; 25 µM, 300 nM Gsα, single experiments, read-out: mAC1 activity (%);(100% = Gsα stimulation) stimulated by 300nM Gsα): 50%; activity at 50 µM (mAC1; 50 µM, 300 nM Gsα, single experiments, read-out: mAC1 activity (%);(100% = Gsα stimulation) stimulated by 300nM Gsα): 31%; activity at 0.1 µM (mAC1; read-out: mAC1 activity (%);(100% = Gsα stimulation) stimulated by 300nM Gsα, 0.1 µM, 300 nM Gsα, single experiments (reference point, all 100)): 100%; Effect of lipid on 300 nM Gsα-stimulated mAC3 (mAC3; 20 µM, in words): less efficacious
4 | CCCCCCCCCCCCCCCCCC [Octadecane] | 71% and 92% | 70% and 95% | 96% and 100% | 67% and 79% | 87% and 68% | 129% and 109% | 80% and 141% | 82% and 128% | 74% and 87% | 
